Earlier results as cited in publication PMC3073735 (Chemistry & biology, 2011).
Where no end group is shown, it is not given here.

Test system: ferroportin
Conditions: ref Nemeth, et al., 2006

Substance: M21Y: synthetic hepcidin mutant from the literature (DTHFPICIFCCGCCHRSKCGYCCKT-OH; disulfide (positions not given here); ends not checked; UniProt P81172 60-84, looked up, variant M21Y)
- activity compared with native hepcidin: comparable activity to native hepcidin
